Experimental data published in patent publication US8975259B2, “Compositions and methods for inhibiting G protein signaling” (University of Rochester, priority 2007, dated 2015).

Key:
[1] = system: GFP-PHAkt translocation (PI3Kγ activation) in HL60 cells; assay: fMLP-dependent GFP-PH-Akt translocation in differentiated HL60 cells; assay type: cell-based, human; conditions: 10 μM compound; result in words
[2] = system: differentiated HL60 cells; assay: GM-CSF-induced chemotaxis of differentiated HL60 cells (Boyden chamber); assay type: cell-based, human; conditions: 10 μM compound, 1 μM GM-CSF; result in words
Experimental: (§1) Differentiated HL60 cells (200 k) were pretreated with 10 μM concentrations of the indicated compound, challenged with 250 nM fMLP, and assayed for chemotaxis in a Boyden chamber for 1 h at 37° C. […] Chemotaxis was quantified as above by subtracting out background cells (0-10 cells) in the absence of chemoattractant to obtain total transmigrated cells (−100 cells GM-CSF+vehicle) and represented as the percentage of GM-CSF-treated control cells. No statistically significant difference from control was seen by ANOVA. […] Primary human neutrophils were isolated from whole blood to ≧80% purity. […] Chemotaxis was quantified as above by subtracting out background cells to obtain total transmigrated cells and represented as the percentage of fMLP-treated control cells. […]
(§2) Chemotaxis was assayed using a Boyden chamber (Neuro Probe, Gaithersburg, Md.) using 3-μm polyvinylpyrrolidone-free polycarbonate filters (Neuro Probe). […] Chemotactic HL60 cells were scored by counting three microscope fields and subtracting the number of cells from fMLP wells as background. […] For all the small molecules, effects of the compounds on chemokinesis was analyzed by measuring chemotaxis in the presence of 250 nM fMLP in both the upper and lower chambers of the Boyden Chamber and measuring changes in transwell migration. […]

[3] = system: primary human neutrophils; assay: fMLP-induced chemotaxis of primary human neutrophils (Boyden chamber); assay type: cell-based; conditions: 250 nM fMLP; for effect on fMLP-induced chemotaxis: 10 μM compound or 1 μM wortmannin, result in words
Experimental: Differentiated HL60 cells (200 k) were pretreated with 10 μM concentrations of the indicated compound, challenged with 250 nM fMLP, and assayed for chemotaxis in a Boyden chamber for 1 h at 37° C. […] Chemotaxis was quantified as above by subtracting out background cells (0-10 cells) in the absence of chemoattractant to obtain total transmigrated cells (−100 cells GM-CSF+vehicle) and represented as the percentage of GM-CSF-treated control cells. No statistically significant difference from control was seen by ANOVA. […] Primary human neutrophils were isolated from whole blood to ≧80% purity. Neutrophils (2×10^5) were pretreated with gallein (10 μM), M119 (10 μM), M119B (10 μM), or wortmannin (wtmn.) (1 μM) and then challenged with 250 nM fMLP or 10 nM IL-8 to evaluate chemotaxis in a Boyden chamber for 1 h at 37° C. […] NS, not statistically different from control. […] Primary human neutrophils were isolated and treated (250 nM fMLP±gallein) as described above. Chemotaxis was quantified as above by subtracting out background cells to obtain total transmigrated cells and represented as the percentage of fMLP-treated control cells. Data shown are pooled from two independent experiments, each in duplicate, ±S.E.M.
Chemotaxis was assayed using a Boyden chamber (Neuro Probe, Gaithersburg, Md.) using 3-μm polyvinylpyrrolidone-free polycarbonate filters (Neuro Probe). HL60 cells (differentiated for 4 days) were washed with and resuspended in HBSS containing 1% bovine serum albumin to a final concentration of 1×10^6 cells/ml. Primary human neutrophils were washed and resuspended in NaCl buffer (140 mM NaCl, 4 mM KCl, 10 mM D-glucose, 10 mM HEPES, pH 7.4, 1 mM MgCl2, and 1 mM CaCl2) to a final concentration of 1×10^6 cells/mi. Chemoattractant [1 μM granulocyte-macrophage-colony stimulating factor (GM-CSF), 10 nM IL-8, or 250 nM fMLP; Sigma Aldrich] was added to the bottom chamber in HBSS containing 1% bovine serum albumin. Cell suspensions (0.2×10^6 cells/well) were added to the top wells of the Boyden chamber and allowed to migrate for 1 h at 37° C. When applicable, cell suspensions were preincubated for […] with small-molecule inhibitors (in DMSO) at the indicated concentrations, and the bottom chamber was adjusted to the same concentration of small molecule. All treatments contained the same final concentration of DMSO. […] Chemotactic HL60 cells were scored by counting three microscope fields and subtracting the number of cells from fMLP wells as background. […] For all the small molecules, effects of the compounds on chemokinesis was analyzed by measuring chemotaxis in the presence of 250 nM fMLP in both the upper and lower chambers of the Boyden Chamber and measuring changes in transwell migration. […]

[4] = system: primary human neutrophils; assay: IL-8-induced chemotaxis of primary human neutrophils (Boyden chamber); assay type: cell-based; conditions: 10 μM compound, 10 nM IL-8; result in words
Experimental: as §1, §2

[5] = system: PLCβ3; assay: Gβ1γ2-dependent activation of purified PLCβ3; assay type: biochemical; conditions: for effect on Gβ1γ2-dependent activation of PLCβ3: result in words
Experimental: (§3) Purified PLCβ2 (0.25 ng) was assayed in the presence (▴) or absence (▪) of 100 nM purified Gβ1γ2. […] Assays contained 10 ng of purified p101/p110 PI3Kγ heterodimer with or without 100 nM purified Gβ1γ2. Left panel: (▴) 100 nM Gβ1γ2 or (▪) no βγ. […] M119 or M201 and 25 nM purified GRK2 were added simultaneously to 250 nM biotinylated Gβ1γ2 (bGβ1γ2) immobilized on streptavidin agarose. GRK2 was detected with antibody to GRK2. Data are representative (mean ±SEM, except D) repeated at least three times each. […] 30 nM bGβ1γ2 was incubated with either 30 nM PLCβ2 or PLCβ3 in the presence or absence of M119 or M201 for 16 h at 4° C. before precipitation with avidin agarose and detection with PLCβ2,or Gβ antibodies. […] Same as 4E with PLCβ3.
The ability of NSC119910 analogs to selectively modulate activation PLC-β2 and -β3 was analyzed. In this assay, PLC-β2 and PLC-β3 were purified and PLC enzymatic activity was measured in the presence or absence of purified βy and in the presence or absence of analog.
(§4) Nevertheless, M119 and M201 were tested in in vitro reconstitution assays of Gβγ-dependent activation of PLCβ2, PLCβ3 and PI3Kγ and binding to GRK2. […] These are only two of multiple diverse compounds identified, indicating potential for multiple modes of Gβγ-dependent target modulation by these small molecules.

[6] = system: PI3Kγ; assay: Gβ1γ2-dependent activation of purified p101/p110 PI3Kγ; assay type: biochemical; conditions: for effect on Gβ1γ2-dependent activation of PI3Kγ: result in words
Experimental: as §3, §4

[7] = target: T1, Gβγ-GRK2 interaction (UniProt P54311+P63212); assay: GRK2 binding to biotinylated Gβ1γ2 on streptavidin agarose
T1 construct: made in house; host or cells: bGβ1γ2: Sf9 insect cells
T1 sequence (P54311 whole entry): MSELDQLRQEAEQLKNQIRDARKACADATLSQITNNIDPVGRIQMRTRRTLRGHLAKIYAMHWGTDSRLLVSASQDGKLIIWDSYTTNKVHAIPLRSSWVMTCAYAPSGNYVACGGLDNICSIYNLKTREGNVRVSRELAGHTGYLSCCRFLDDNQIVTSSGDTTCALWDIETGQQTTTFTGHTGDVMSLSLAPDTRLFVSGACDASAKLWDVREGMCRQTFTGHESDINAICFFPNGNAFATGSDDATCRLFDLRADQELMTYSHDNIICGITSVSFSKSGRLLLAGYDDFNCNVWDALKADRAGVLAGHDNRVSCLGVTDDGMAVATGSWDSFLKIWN
T1 sequence (P63212 2-68 limits assumed): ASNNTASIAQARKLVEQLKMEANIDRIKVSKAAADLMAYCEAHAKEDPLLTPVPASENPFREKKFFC

`O=C(O)c1ccccc1-c1c2ccc(=O)c(O)c-2oc2c(O)c(O)ccc12` (racemic) [Gallein] was tested, and the “effect on fMLP-dependent translocation of GFP-PHAkt to the membrane” value [1] was “inhibited”, the “effect on GM-CSF-induced chemotaxis” value [2] was “Neither M119 nor gallein blocked” and the “effect on fMLP-induced chemotaxis” value [3] was “significantly inhibited”. The IC50 ([3]; Homo sapiens, Neutrophil, read-out: IC50 for block of fMLP-dependent chemotaxis) was roughly 5 µM and the “effect on IL-8 regulated chemotaxis” value [4] was “blocked”.
With `O=C(O)C1CCCCC1c1c2ccc(=O)c(O)c-2oc2c(O)c(O)ccc12` (stereo not drawn) [Compound M119, cyclohexanecarboxylic acid, 2-(4,5,6-trihydroxy-3-oxo-3H-xanthen-9-yl)-(9cl)] the IC50 ([5]; Table 19, effector IC50, read-out: PLCb3) was 3 µM, the “effect on Gβ1γ2-dependent activation of PLCβ3” value [5] was “attenuated” and the IC50 ([6]; Table 19, effector IC50, read-out: PI 3-Kg) was 8 µM. The “effect on Gβ1γ2-dependent activation of PI3Kγ” value [6] was “attenuated”, the IC50 [7] was roughly 5 µM and the “effect on fMLP-dependent translocation of GFP-PHAkt to the membrane” value [1] was “inhibited”. For the same compound, the “effect on GM-CSF-induced chemotaxis” value [2] was “Neither M119 nor gallein blocked”, the “effect on fMLP-induced chemotaxis” value [3] was “significantly inhibited” and the “effect on IL-8 regulated chemotaxis” value [4] was “blocked”.
In the case of `O=C(O)C1CCCCC1c1c2ccc(=O)cc-2oc2cc(O)ccc12` (stereo not drawn) [Compound M119B], the “effect on Gβ1γ2-dependent activation of PLCβ3” value [5] is reported as “did not have effects”, the “effect on Gβ1γ2-dependent activation of PI3Kγ” value [6] is reported as “did not have effects” and the “effect on GRK2 binding to bGβ1γ2” value ([7]; result in words) is reported as “did not have effects”. The “effect on fMLP-induced chemotaxis” value [3] was “no affect”.
